In the oligonucleotide strings, read from the 5' end, every base follows the letter of its sugar. An asterisk marks phosphorothioate; unmarked linkages are phosphodiester. Other units and linkages are bracketed, terminal groups are in braces. A string of capitals states the bases alone. d = 2'-deoxy (DNA)
test system: human meltrin α RNA; test: Suppression of human meltrin α expression by antisense compound in RD cell (real time PCR); type: cell-based; settings: 200 nM; RD cell; corrected by GAPDH
Procedure: First, RD cell (ATCC) was suspended in DMEM containing 10% fetal bovine serum (FBS, SIGMA), and the suspension was inoculated in 6 well culture plate at 2.5×10^5 cells/well/2 mL. After incubating overnight at 37° C. in the presence of 5% CO2, the cells were washed twice with serum-free DMEM, and Opti-MEM medium (GIBCO) was added at 800 μL/well.
Gene transfection reagent Lipofectin (Invitrogen) was diluted with Opti-MEM to 20 μg/mL, and the dilution was allowed to stand at room temperature for 30 minutes. Next, the antisense oligodeoxynucleotide synthesized as described above was heated at 90° C. for 3 minutes, and after quenching on ice, diluted with Opti-MEM to a concentration 10 times higher than the final concentration. Equal amounts of the Lipofectin in Opti-MEM and the antisense oligo DNA in Opti-MEM were mixed, and the mixture was incubated at room temperature for 15 minutes and added to 6 well plate at 200 μL/well.
The culture was incubated at 37° C. for 4 hours in the presence of 5% CO2, and the culture supernatant containing the Lipofectin was removed. The cells were washed twice with serum-free DMEM, and after adding 1 mL/well of Opti-MEM and incubating for 18 hours at 37° C. in the presence of 5% CO2, the cells were subjected to the measurement of the level of expression of meltrin α RNA.
After the washing, RNA was isolated from the cell by using RNA isolation kit (RNeasy Micro Kit, QIAGEN) according to the protocol of the kit, and RNA concentration was determined by measuring absorbance at a wavelength of 260 nm with a spectrophotometer (Nano prop, LMS Co., Ltd.) (1OD=40 μg/mL). After the quantitation, the RNA was prepared to a concentration of 0.1 μg/μL by using DEPC-treated water.
0.35 μg of the isolated RNA, and 3.5 μL of 10× TaqMan buffer, 7.7 μL of 25 mM MgCl2, 7.0 μL of 2.5 mM each dNTP Mix, 1.75 μL of 50 μM Random Hexamers, 0.7 μL of 20 U/μL RNase inhibitor, and 0.9 μL of 50 U/μL MultiScribe Reverse Transcriptase (all purchased from Applied Biosystems) were mixed, and water was added to make up the total volume to 35 μL. This solution was maintained at 25° C. for 10 minutes, at 48° C. for 30 minutes, and at 95° C. for 5 minutes, and reverse transcription was conducted to synthesize cDNA.
A solution in total volume of 20 μL containing 10 μL of TaqMan Universal PCR Master Mix, 0.4 μL of 10 μM TaqMan MGB Probe (sequence 5′FAM-caccgaaggacaatccca-MGB-3′: Applied Biosystems), 0.1 μL of 50 μM Forward primer (sequence ggaagccgccagattcct) for detecting meltrin α, 0.1 μL of 50 μM Reverse primer (sequence […]) for detecting meltrin α (all purchased from Sigma-Genosys), 5 μL of the cDNA solution of (3), and 4.4 μL of water was prepared, and after maintaining the solution at 50° C. for 2 minutes and at 95° C. for 10 minutes, PCR was conducted by repeating 40 cycles of 95° C. for 15 seconds and 60° C. for 1 minute in ABI Prism 7000.
The amount of the human meltrin α RNA was measured by conducting real time PCR by using the plasmid containing the cDNA coding for the human meltrin α for the template to generate the standard curve, and calculating RNA copy number of the meltrin α in each sample. The level of expression of GAPDH was also determined by using a primer and probe set for real time PCR of human GAPDH (Pre-Developed TaqMan Assay Reagents Human GAPDH (20×) (Cat# 4310884E, Applied Biosystems).
The results of the real time PCR of the meltrin α was corrected by the level of expression of the GAPDH to calculate the suppression rate. […]

| Substance | suppression rate of expression, 200 nM |
| --- | --- |
| H032: aatttcgagcgagggagaca (AATTTCGAGCGAGGGAGACA; antisense; DNA, all phosphorothioate, methylation of C not given here) | + (“+” when the suppression rate was at least 30%) |
| H033: gtgacccagaattaccgtgt (GTGACCCAGAATTACCGTGT; antisense; DNA, all phosphorothioate, methylation of C not given here) | + (“+” when the suppression rate was at least 30%) |
| H034: acatgtccatggtagtaaca (ACATGTCCATGGTAGTAACA; antisense; DNA, all phosphorothioate, methylation of C not given here) | ++ (“++” when the suppression rate was at least 50%) |
| H035: ctgaatcagaatatccccgt (CTGAATCAGAATATCCCCGT; antisense; DNA, all phosphorothioate, methylation of C not given here) | ++ (“++” when the suppression rate was at least 50%) |
| H036: acacgtgctgagactgactg (ACACGTGCTGAGACTGACTG; antisense; DNA, all phosphorothioate, methylation of C not given here) | ++ (“++” when the suppression rate was at least 50%) |
| H037: ataagtcccctgagaccaga (ATAAGTCCCCTGAGACCAGA; antisense; DNA, all phosphorothioate, methylation of C not given here) | + (“+” when the suppression rate was at least 30%) |
| H040: ttgtatctgttggttgcact (TTGTATCTGTTGGTTGCACT; antisense; DNA, all phosphorothioate, methylation of C not given here) | + (“+” when the suppression rate was at least 30%) |
| H041: gcttcttcgctgggaagagt (GCTTCTTCGCTGGGAAGAGT; antisense; DNA, all phosphorothioate, methylation of C not given here) | + (“+” when the suppression rate was at least 30%) |
| H043: gtgttgtgatgtgatccaca (GTGTTGTGATGTGATCCACA; antisense; DNA, all phosphorothioate, methylation of C not given here) | + (“+” when the suppression rate was at least 30%) |
| H044: tctttgcagcgaggtttggt (TCTTTGCAGCGAGGTTTGGT; antisense; DNA, all phosphorothioate, methylation of C not given here) | ++ (“++” when the suppression rate was at least 50%) |
| H045: agagggtggtggaaacacat (AGAGGGTGGTGGAAACACAT; antisense; DNA, all phosphorothioate, methylation of C not given here) | ++ (“++” when the suppression rate was at least 50%) |
| H046: tgccttcttgcccatgtctg (TGCCTTCTTGCCCATGTCTG; antisense; DNA, all phosphorothioate, methylation of C not given here) | ++ (“++” when the suppression rate was at least 50%) |
| H048: cagctccacatacttagttg (CAGCTCCACATACTTAGTTG; antisense; DNA, all phosphorothioate, methylation of C not given here) | ++ (“++” when the suppression rate was at least 50%) |
| H049: cggttgtctgccacgatcac (dC*dG*dG*dT*dT*dG*dT*dC*dT*dG*dC*dC*dA*dC*dG*dA*dT*dC*dA*dC; antisense) | + (“+” when the suppression rate was at least 30%) |
| H055: tccacgcctaccaacacgat (dT*dC*dC*dA*dC*dG*dC*dC*dT*dA*dC*dC*dA*dA*dC*dA*dC*dG*dA*dT; antisense) | ++ (“++” when the suppression rate was at least 50%) |
| H058: tcatggaggctggtgaatgg (dT*dC*dA*dT*dG*dG*dA*dG*dG*dC*dT*dG*dG*dT*dG*dA*dA*dT*dG*dG; antisense) | ++ (“++” when the suppression rate was at least 50%) |
| H061: agctgcgcattgtcatggga (dA*dG*dC*dT*dG*dC*dG*dC*dA*dT*dT*dG*dT*dC*dA*dT*dG*dG*dG*dA; antisense) | + (“+” when the suppression rate was at least 30%) |
| H063: catgccgatggtggtccctt (dC*dA*dT*dG*dC*dC*dG*dA*dT*dG*dG*dT*dG*dG*dT*dC*dC*dC*dT*dT; antisense) | ++ (“++” when the suppression rate was at least 50%) |
| H065: ccccagactggtctgccgtg (dC*dC*dC*dC*dA*dG*dA*dC*dT*dG*dG*dT*dC*dT*dG*dC*dC*dG*dT*dG; antisense) | ++ (“++” when the suppression rate was at least 50%) |
| H068: gctcatgtgccagggtcacg (dG*dC*dT*dC*dA*dT*dG*dT*dG*dC*dC*dA*dG*dG*dG*dT*dC*dA*dC*dG; antisense) | + (“+” when the suppression rate was at least 30%) |
| H069: catcccgaaattgtggccca (dC*dA*dT*dC*dC*dC*dG*dA*dA*dA*dT*dT*dG*dT*dG*dG*dC*dC*dC*dA; antisense) | + (“+” when the suppression rate was at least 30%) |
| H070: ctgtccagtgtgtcatgatt (dC*dT*dG*dT*dC*dC*dA*dG*dT*dG*dT*dG*dT*dC*dA*dT*dG*dA*dT*dT; antisense) | + (“+” when the suppression rate was at least 30%) |
| H071: ccatttgacagctacagccc (dC*dC*dA*dT*dT*dT*dG*dA*dC*dA*dG*dC*dT*dA*dC*dA*dG*dC*dC*dC; antisense) | + (“+” when the suppression rate was at least 30%) |
| H072: gcagcctcctttctcaaccg (dG*dC*dA*dG*dC*dC*dT*dC*dC*dT*dT*dT*dC*dT*dC*dA*dA*dC*dC*dG; antisense) | + (“+” when the suppression rate was at least 30%) |
| H074: acaccatgggaaatgggtac (dA*dC*dA*dC*dC*dA*dT*dG*dG*dG*dA*dA*dA*dT*dG*dG*dG*dT*dA*dC; antisense) | + (“+” when the suppression rate was at least 30%) |

same assay, conditions: 200 nM; chimeric 2′-methoxy antisense oligonucleotides; RD cell

| Substance | suppression rate of expression, 200 nM |
| --- | --- |
| H075-OMe1: chimeric antisense oligonucleotide TGCTGcaactgctgaACACC, uppercase 2′-methoxy nucleotides, lowercase phosphorothioate nucleotides (TGCTGCAACTGCTGAACACC; 2'-O-methyl at 1, 2, 3, 4, 5, 16, 17, 18, 19, 20, other sugars, backbone and T or U not given here; lowercase gap nucleotides phosphorothioate) | + (“+” when the suppression rate was at least 30%) |
| H075-OMe2: chimeric antisense oligonucleotide AAGTCcttcctgctgCAACT, uppercase 2′-methoxy nucleotides, lowercase phosphorothioate nucleotides (AAGTCCTTCCTGCTGCAACT; 2'-O-methyl at 1, 2, 3, 4, 5, 16, 17, 18, 19, 20, other sugars, backbone and T or U not given here; lowercase gap nucleotides phosphorothioate) | + (“+” when the suppression rate was at least 30%) |
